Tested on: gene expression in C. difficile 630Δerm
Test: RNA-seq, genes differentially expressed in LL-37

## CC[C@H](C)[C@H](NC(=O)[C@H](CCCCN)NC(=O)[C@H](CCC(=O)O)NC(=O)[C@H](CCCCN)NC(=O)[C@H](CO)NC(=O)[C@H](CCCCN)NC(=O)[C@H](CCCNC(=N)N)NC(=O)[C@H](Cc1ccccc1)NC(=O)[C@H](Cc1ccccc1)NC(=O)[C@H](CC(=O)O)NC(=O)CNC(=O)[C@H](CC(C)C)NC(=O)[C@@H](N)CC(C)C)C(=O)NCC(=O)N[C@@H](CCCCN)C(=O)N[C@@H](CCC(=O)O)C(=O)N[C@@H](Cc1ccccc1)C(=O)N[C@@H](CCCCN)C(=O)N[C@@H](CCCNC(=N)N)C(=O)N[C@H](C(=O)N[C@H](C(=O)N[C@@H](CCC(N)=O)C(=O)N[C@@H](CCCNC(=N)N)C(=O)N[C@H](C(=O)N[C@@H](CCCCN)C(=O)N[C@@H](CC(=O)O)C(=O)N[C@@H](Cc1ccccc1)C(=O)N[C@@H](CC(C)C)C(=O)N[C@@H](CCCNC(=N)N)C(=O)N[C@@H](CC(N)=O)C(=O)N[C@@H](CC(C)C)C(=O)N[C@H](C(=O)N1CCC[C@H]1C(=O)N[C@@H](CCCNC(=N)N)C(=O)N[C@H](C(=O)N[C@@H](CCC(=O)O)C(=O)N[C@@H](CO)C(=O)O)[C@@H](C)O)C(C)C)[C@@H](C)CC)C(C)C)[C@@H](C)CC [LL-37]
2 µg/ml LL-37, BHIS
  CD630_18890 fold change in LL-37: 4.54
  CD630_18900 fold change in LL-37: 3.60
  CD630_19120 (eutA) fold change in LL-37: 0.20
  CD630_19150 (eutL) fold change in LL-37: 0.21
  CD630_19180 (eutK) fold change in LL-37: 0.40
  CD630_19210 fold change in LL-37: 0.48
  CD630_19220 (eutN) fold change in LL-37: 0.25
  CD630_19440 fold change in LL-37: 2.03
  CD630_19670 fold change in LL-37: 2.01
  CD630_20140 (ilvD) fold change in LL-37: 2.90
  CD630_20160 fold change in LL-37: 0.26
  CD630_20270 fold change in LL-37: 2.69
  CD630_20280 (racX) fold change in LL-37: 2.39
  CD630_20451 fold change in LL-37: 0.46
  CD630_20751 fold change in LL-37: 2.21
  CD630_20910 fold change in LL-37: 2.49
  CD630_21270 fold change in LL-37: 2.34
  CD630_21430 fold change in LL-37: 0.48
  CD630_21510 fold change in LL-37: 0.48
  CD630_21640 (ldh) fold change in LL-37: 2.95
  CD630_21710 fold change in LL-37: 0.34
  CD630_21930 (cwp24) fold change in LL-37: 2.54
  CD630_22010 fold change in LL-37: 0.40
  CD630_22330 (asrA) fold change in LL-37: 2.43
  CD630_23090 fold change in LL-37: 2.29
  CD630_23300 (xpt) fold change in LL-37: 0.49
  CD630_23310 (mtlD) fold change in LL-37: 0.12
  CD630_23320 (mtlF) fold change in LL-37: 0.12
  CD630_23330 (mtlR) fold change in LL-37: 0.14
  CD630_23340 (mtlA) fold change in LL-37: 0.15
  CD630_23380 (4hbD) fold change in LL-37: 12.95
  CD630_23390 (cat2) fold change in LL-37: 13.27
  CD630_23400 fold change in LL-37: 13.14
  CD630_23410 (abfD) fold change in LL-37: 14.81
  CD630_23420 (sucD) fold change in LL-37: 12.71
  CD630_23430 (cat1) fold change in LL-37: 11.85
  CD630_23440 fold change in LL-37: 10.85
  CD630_23700 (nadC) fold change in LL-37: 0.42
  CD630_23710 (nadB) fold change in LL-37: 0.40
  CD630_23720 (nadA) fold change in LL-37: 0.40
  CD630_23790 (buk2) fold change in LL-37: 3.13
  CD630_23800 (iorB) fold change in LL-37: 10.81
  CD630_23810 (iorA) fold change in LL-37: 13.66
  CD630_23820 fold change in LL-37: 13.76
  CD630_24291 fold change in LL-37: 0.23
  CD630_24610 (dnaK) fold change in LL-37: 0.48
  CD630_24620 (grpE) fold change in LL-37: 0.41
  CD630_24630 (hrcA) fold change in LL-37: 0.49
  CD630_25090 fold change in LL-37: 0.40
  CD630_25100 fold change in LL-37: 0.48
  CD630_25110 fold change in LL-37: 0.48
  CD630_25150 fold change in LL-37: 0.38
  CD630_25160 (ansB) fold change in LL-37: 0.44
  CD630_25171 fold change in LL-37: 2.04
  CD630_25560 fold change in LL-37: 4.24
  CD630_26140 fold change in LL-37: 0.12
  CD630_26640 (murE) fold change in LL-37: 0.35
  CD630_26650 fold change in LL-37: 0.43
  CD630_26691 fold change in LL-37: 0.50
  CD630_26700 fold change in LL-37: 0.43
  CD630_26710 fold change in LL-37: 0.38
  CD630_26820 (pfo) fold change in LL-37: 2.03
  CD630_26860 fold change in LL-37: 0.41
  CD630_26870 fold change in LL-37: 0.46
  CD630_27090 fold change in LL-37: 2.37
  CD630_27250 fold change in LL-37: 2.07
  CD630_27491 fold change in LL-37: 0.38
  CD630_27500 (agrB) fold change in LL-37: 0.49
  CD630_27640 fold change in LL-37: 0.38
  CD630_27840 (cwp6) fold change in LL-37: 2.30
  CD630_27880 fold change in LL-37: 0.48
  CD630_28770 (fhuB) fold change in LL-37: 0.35
  CD630_28780 (fhuD) fold change in LL-37: 0.30
  CD630_29320 fold change in LL-37: 0.30
  CD630_29330 fold change in LL-37: 0.50
  CD630_29341 fold change in LL-37: 0.29
  CD630_29360 fold change in LL-37: 0.44
  CD630_29400 fold change in LL-37: 0.42
  CD630_29420 fold change in LL-37: 0.41
  CD630_29430 fold change in LL-37: 0.45
  CD630_29440 fold change in LL-37: 0.44
  CD630_29470 fold change in LL-37: 0.30
  CD630_29490 fold change in LL-37: 0.46
  CD630_29620 fold change in LL-37: 2.13
  CD630_29710 (bioY) fold change in LL-37: 0.45
  CD630_30250 fold change in LL-37: 0.47
  CD630_30260 fold change in LL-37: 0.45
  CD630_30270 fold change in LL-37: 0.25
  CD630_30340 fold change in LL-37: 0.38
  CD630_30360 fold change in LL-37: 0.39
  CD630_30720 fold change in LL-37: 0.41
  CD630_30990 fold change in LL-37: 0.40
  CD630_31000 fold change in LL-37: 0.36
  CD630_31150 (bglA4) fold change in LL-37: 0.37
  CD630_31360 (bglA7) fold change in LL-37: 0.35
  CD630_31370 (bglF5) fold change in LL-37: 0.39
  CD630_31750 (cggR) fold change in LL-37: 0.22
  CD630_32090 fold change in LL-37: 0.47
  CD630_32100 fold change in LL-37: 0.48
  CD630_32220 (sdaB) fold change in LL-37: 0.49
  CD630_32570 fold change in LL-37: 0.37
  CD630_32600 (phoU) fold change in LL-37: 0.49
  CD630_32620 (pstA) fold change in LL-37: 0.48
  CD630_33440 fold change in LL-37: 0.39
  CD630_33730 (mgtA) fold change in LL-37: 3.39
  CD630_33740 fold change in LL-37: 3.92
  CD630_33750 (mgtC) fold change in LL-37: 2.96
  CD630_33790 fold change in LL-37: 2.14
  CD630_33911 fold change in LL-37: 2.66
  CD630_35370 (phnH) fold change in LL-37: 0.39
  CD630_36010 fold change in LL-37: 0.35
2 µg/ml LL-37, BHIS (Table S5)
  CD630_22290 fold change in LL-37: 0.51
sub-MIC LL-37, at least 2-fold, p < 0.05
  genes induced: 107 genes
sub-MIC LL-37, p < 0.05
  genes differentially expressed at least 2-fold: 228 genes
